In brackets after ≈: the same amount, converted by molar mass.
System: Candida albicans
Test: In vitro antifungal activity against candida albicans (IP 1180.79)
Format: functional

MIC [µM] | Structure (SMILES)
60 (≈ 26.6 µg/mL) | C[C@H](CCCC(C)(C)N)C1CC[C@@]2(C)C3=C(CC[C@]12C)[C@@]1(C)CC[C@H](O)C(C)(C)C1CC3 (some centres not stated)
4 (≈ 1.61 µg/mL) | C[C@H](CCCC(C)(C)N)C1CCC2C3CC=C4C[C@@H](O)CC[C@]4(C)C3CC[C@@]21C (some centres not stated)
